“And” between values parts separate entries of the source, which are not always exact repeats. Equal values may be shown once. Read-outs that look alike come from different tables or passages of the source.
What was measured:
[1] = tested on: HCV 1b replicon system (Huh-luc); experiment: Antiviral combination studies with Compound 6, MacSynergy II
[2] = tested on: Huh-7 cells carrying a HCV genotype 1a replicon; experiment: Cytotoxicity combination studies with Compound 4, MacSynergy II
[3] = HCV genotype 1a replicon assay, CC50 by calcein AM (Biological Example 3); type: cell-based; conditions: human, Huh-7 cells carrying a HCV genotype 1a replicon, genotype 1a replicon cells
Method: The CC50 assay was performed first.

[4] = tested on: Genotype 1 b replicon cells; experiment: Compound combination replicon cure assay, colony formation; conditions: 6 days treatment at the same concentrations, then G418 for 14 days
[5] = tested on: Huh-7 cells carrying an HCV genotype 1a replicon; conditions: with 320 nM Compound 10 and the highest concentration of the listed compound
genotype 1b replicon RNA = experiment: Replicon RNA suppression, 6 day assay, QRT-PCR
[6] = tested on: 1b Huh-luc replicon cells; experiment: Antiviral combination studies with Compound 5, MacSynergy II; type: cell-based, HCV
Method: Combination data were analyzed based on the Bliss Independence model using MacSynergy II software. Results of the combination assays were expressed as mean synergy and antagonism volumes (nM^2) calculated at 95% confidence from two independent experiments performed in triplicate.

HCV genotype 1a replicon [7] = experiment: HCV genotype 1a replicon assay, EC50 (Biological Example 3); type: cell-based; conditions: Hepatitis C virus, 72 h, 3 days, average ± standard deviation, read-out: EC50
HCV genotype 1a replicon [8] = experiment: Antiviral combination studies with Compound 4, MacSynergy II; conditions: in combination with Compound 4, mean ± standard deviation
HCV genotype 1a replicon [9] = experiment: HCV genotype 1a replicon assay, EC50 (Biological Example 8); conditions: Hepatitis C virus, 72 h
HCV genotype 1a replicon [10] = experiment: Antiviral combination studies with Compound 10, MacSynergy II; conditions: in combination with Compound 10
[11] = HCV genotype 1a replicon assay, CC50 by calcein AM (Biological Example 8); conditions: human, Huh-7 cells carrying an HCV genotype 1a replicon
[12] = tested on: GT2b wild-type chimeric replicon (2b NS5B in GT1b backbone); experiment: microbe, parasite or virus in culture; type: cell-based, HCV; conditions: Hepatitis C virus, 72 h, read-out: EC50 WT
[13] = tested on: NS5B S282T mutant replicons; experiment: microbe, parasite or virus in culture; type: cell-based, HCV; conditions: Hepatitis C virus, read-out: EC50 values for S282T across all five genotypes
[14] = tested on: Genotype 1a replicon, NS5A Q30R
GT2a wild-type replicon = experiment: microbe, parasite or virus in culture; type: cell-based, HCV; conditions: Hepatitis C virus, 72 h, 3 days
[15] = tested on: Genotype 1a replicon, NS5A Y93H
[16] = tested on: Genotype 1a replicon, NS5A Q30E
GT1b wild-type replicon = experiment: microbe, parasite or virus in culture; type: cell-based, HCV; conditions: Hepatitis C virus, 72 h, 3 days
[17] = tested on: GT3a NS5B S282T mutant chimeric replicon; experiment: microbe, parasite or virus in culture; type: cell-based, HCV
[18] = tested on: GT1b NS5B S282T mutant replicon; experiment: microbe, parasite or virus in culture; type: cell-based, HCV
[19] = tested on: GT4a wild-type chimeric replicon (4a NS5B in GT1b backbone); experiment: microbe, parasite or virus in culture; type: cell-based, HCV; conditions: Hepatitis C virus, 72 h, read-out: EC50 WT
[20] = tested on: panel of NS5A mutant replicons; experiment: Transient replicon assay, panel of NS5A mutant replicons; type: cell-based, HCV; conditions: seven NS5A mutants, genotype 1a
Description: NS5A mutant replicons were created by synthesizing a sequence encoding the first 149 amino acids of NS5A containing the desired mutation flanked by a 5′ and 3′ BsrGI and EcoRI site, respectively (Genscript, Piscataway, N.J.). Synthesized fragments were then cloned by standard molecular biology techniques into a 1a Rluc replicon plasmid modified to enable cloning into unique BsrGI and EcoRI restriction sites. Mutations were confirmed by DNA sequencing.
RNA was transfected into Huh-lunet cells using the method of Lohmann et al. (Lohmann et al., Science 1999; 285 (5424):110-3) Briefly, cells were trypsinized and washed twice with PBS. A suspension of 4×10^6 cells in 400 μL of PBS were mixed with 5 μg of RNA and subjected to electroporation using settings of 960 μF and 270 V. Cells were transferred into 40 mL of pre-warmed culture medium and then seeded into 96-well or 384-well plates. Compounds were 3-fold serially diluted in 100% DMSO and added to cells to achieve a final DMSO concentration of 0.5%. Cells were treated for three days after which culture media were removed, cells were lysed, and Renilla luciferase activity was quantified using commercially available reagents (Promega) and a Victor or Envision instrument (Perkin Elmer, Waltham, Mass.).
Resistance fold changes were calculated as the ratio of mutant to wild-type replicon EC50. […]

[21] = tested on: Genotype 1a replicon, NS5A Q30H
[22] = tested on: Genotype 1a replicon, NS5A L31M
[23] = tested on: GT3a wild-type chimeric replicon (3a NS5B in GT1b backbone); experiment: microbe, parasite or virus in culture; type: cell-based, HCV; conditions: Hepatitis C virus, 72 h, read-out: EC50 WT
[24] = tested on: GT2a NS5B S282T mutant replicon; experiment: microbe, parasite or virus in culture; type: cell-based, HCV
[25] = tested on: GT2b NS5B S282T mutant chimeric replicon; experiment: microbe, parasite or virus in culture; type: cell-based, HCV
[26] = tested on: GT4a NS5B S282T mutant chimeric replicon; experiment: microbe, parasite or virus in culture; type: cell-based, HCV
[27] = tested on: Genotype 1a replicon, NS5A M28T
[28] = in combination with Compound 6, mean ± standard deviation
[29] = in combination with Compound 4, mean ± standard deviation
[30] = in combination with Compound 5, mean ± standard deviation

For CC[C@@H]1C[C@]1(NC(=O)[C@@H]1C[C@@H](Oc2cc(-c3csc(NC(C)C)n3)nc3c(Cl)c(OCCN4CCOCC4)ccc23)CN1C(=O)[C@@H](NC(=O)O[C@@H]1C[C@@H]2C[C@@H]2C1)C(C)(C)C)C(=O)O [Compound 3], the Interaction ([1]; in combination with Compound 6) was “Strong Synergy”, the “Antagonism Volume” value [1, 28] was −0.1 ± 0.2 nM^2 and the “Synergy Volume” value [1, 28] was 132 nM^2 and 132 ± 44 nM^2. The “Interaction (cytotoxicity)” value ([2]; in combination with Compound 4) was “Additivity (Additivity: ≤25 and >−25 nM^2%)”, the “Antagonism Volume (cytotoxicity)” value [2, 29] was 0 ± 0 nM^2% and the “Synergy Volume (cytotoxicity)” value [2, 29] was 3 ± 5 nM^2%. For the same molecule, the CC50 at 3 days [3] was > 22.2 µM, the Uncured colony number [4] was 989 and the “Cytotoxicity at Highest Concentration of Compound Combinations (% inhibition on cell growth)” value [5] was 2.0 ± 3.5%. For the same molecule, the “Replicon RNA log drop” value (genotype 1b replicon RNA) was −0.9 log, the “Compound concentration able to induce replicon RNA 1-1.5 log drop in a 6 day assay” value (genotype 1b replicon RNA; genotype 1b replicon cells, 6 days) was 26.25 nM and the “Replicon RNA log drop” value (genotype 1b replicon RNA; single compound at the listed concentration, 6 days, relative to DMSO control (Table XIV)) was −0.9 log. The Interaction ([6]; in combination with Compound 5) was “Additive”, the “Antagonism Volume” value [6, 30] was −2 ± 2 nM^2 and the “Synergy Volume” value [6, 30] was 19 ± 13 nM^2. The EC50 (HCV genotype 1a replicon [7]) was 49 ± 18 nM, the “Antagonism Volume” value (HCV genotype 1a replicon [8]) was −3 ± 2 nM^2% and the “Synergy Volume” value (HCV genotype 1a replicon [8]) was 26 ± 6 nM^2%. For the same molecule, the EC50 (HCV genotype 1a replicon [9]) was 46 nM, the Interaction (HCV genotype 1a replicon [10]) was “Additive” and the CC50 at 3 days [11] was > 22.2 µM.

For CC(C)OC(=O)[C@H](C)N[P@](=O)(OC[C@H]1O[C@@H](n2ccc(=O)[nH]c2=O)[C@](C)(F)[C@@H]1O)Oc1ccccc1 [Compound 10], the EC50 [12] was 13.3 nM, the EC50 [13] was 117 to 346 nM and the “Fold Shift in EC50 (DRM EC50/1a-H77 EC50)” value (“Fold Shift in EC50” below) [14] was 0.8. The EC50 (GT2a wild-type replicon) was 147 nM, the “Fold Shift in EC50” value [15] was 0.7 and the “Fold Shift in EC50” value [16] was 1.0. For the same molecule, the EC50 (GT1b wild-type replicon) was 21.5 nM, the Fold change ([17]; GT3a, S282T EC50 versus corresponding wild type) was 3.5 and the EC50 ([17]; Hepatitis C virus, GT3A, 72 h, read-out: EC50 S282T) was 117 nM. For the same molecule, the Fold change ([18]; GT1b, S282T EC50 versus corresponding wild type) was 8.8, the EC50 ([18]; Hepatitis C virus, GT1B, 72 h, read-out: EC50 S282T) was 189 nM and the EC50 [19] was 35.8 nM. The “increase (shift) in EC50 for NS5A mutants” value [20] was “no significant shift”, the “Fold Shift in EC50” value [21] was 1.0 and the “Fold Shift in EC50” value [22] was 1.1. The EC50 [23] was 33.9 nM, the Fold change ([24]; GT2a, S282T EC50 versus corresponding wild type) was 2.4 and the EC50 ([24]; Hepatitis C virus, GT2A, 72 h, read-out: EC50 S282T) was 346 nM. For the same molecule, the EC50 (HCV genotype 1a replicon [9]) was 39 nM, the Fold change ([25]; GT2b, S282T EC50 versus corresponding wild type) was 16.2 and the EC50 ([25]; Hepatitis C virus, GT2B, 72 h, read-out: EC50 S282T) was 216 nM. For the same molecule, the Fold change ([26]; GT4a, S282T EC50 versus corresponding wild type) was 6.1, the EC50 ([26]; Hepatitis C virus, GT4A, 72 h, read-out: EC50 S282T) was 218 nM and the “Fold Shift in EC50” value [27] was 0.9. For the same molecule, the CC50 at 3 days [11] was > 82.4 µM.
